Our source for the IC50 values is patent publication US12059420B2 (BRISTOL-MYERS SQUIBB COMPANY, priority 2018, dated 2024).

The experiment concerns the target T1, human IDO1 (Homo sapiens, UniProt P14902).
T1 construct: expressed in transfected cells
The experiment in a line: IDO inhibition assay in HEK293 cells stably expressing human IDO1 (kynurenine production, Ehrlich reagent, absorbance 490 nm). The class given is cell-based. The conditions noted are these: 20 hours incubation with compound, 500 nM reference standard = 100% inhibition, read-out: IDO1 HEK Human IC50. As to the method: HEK293 cells were transfected with a pCDNA-based mammalian expression vector harboring human IDO1 cDNA (NM 002164.2) by electroporation. They were cultured in medium (DMEM with 10% FBS) containing 1 mg/ml G418 for two weeks. Clones of HEK293 cells that stably expressed human IDO1 protein were selected and expanded for IDO inhibition assay.
The human IDO1/HEK293 cells were seeded at 10,000 cells per 50 μL per well with RPMI/phenol red free media contains 10% FBS in a 384-well black wall clear bottom tissue culture plate (Matrix Technologies LLC) 100 nL of certain concentration of compound was then added to each well using ECHO liquid handling systems. The cells were incubated for 20 hours in 37° C. incubator with 5% CO2.
The compound treatments were stopped by adding trichloroacetic acid (Sigma-Aldrich) to a final concentration at 0.2%. The cell plate was further incubated at 50° C. for 30 minute. The equal volume supernatant (20 μL) and 0.2% (w/v) Ehrlich reagent (4-dimethylaminobenzaldehyde, Sigma-Aldrich) in glacial acetic acid were mixed in a new clear bottom 384-well plate. This plate was then incubated at RT for 30 minute. The absorbance at 490 nm was measured on Envision plate reader.
Compound IC50 values were calculated using the counts of 500 nM of a reference standard treatment as one hundred percent inhibition, and counts of no compound but DMSO treatment as zero percent inhibition.

T1 sequence (P14902 whole entry): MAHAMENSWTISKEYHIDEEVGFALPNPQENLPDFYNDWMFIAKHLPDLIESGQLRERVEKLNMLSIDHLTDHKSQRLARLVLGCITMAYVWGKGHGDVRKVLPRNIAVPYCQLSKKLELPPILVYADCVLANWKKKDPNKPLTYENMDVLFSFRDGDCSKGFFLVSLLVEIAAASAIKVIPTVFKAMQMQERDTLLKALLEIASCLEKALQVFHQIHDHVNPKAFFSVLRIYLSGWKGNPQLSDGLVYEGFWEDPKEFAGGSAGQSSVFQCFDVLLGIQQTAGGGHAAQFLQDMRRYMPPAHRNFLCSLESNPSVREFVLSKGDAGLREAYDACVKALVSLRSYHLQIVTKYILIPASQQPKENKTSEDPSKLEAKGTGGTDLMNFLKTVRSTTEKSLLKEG

For the compound “1-(2-(2-(1H-tetrazol-5-yl)phenyl)-6- (benzyl(propyl)amino)pyridin-4-yl)-3-(4- ethoxyphenyl)urea [Example 272]”, the IC50 came to 129 nM.
For “6-(2-(1H-tetrazol-5-yl)phenyl)-N2- benzyl-N4-(2-fluoropyridin-3-yl)- N2-isobutylpyridine-2,4-diamine, TFA [Example 54]” the value was 24.8 nM.
In the case of `CCC(CC(=O)O)c1cc(Nc2ccc(Cl)cc2)cc(N(Cc2ccccc2)CC(C)C)n1` (racemic) [Example 245, 3-(6-(benzyl(isobutyl)amino)-4-((4-chlorophenyl)amino)pyridin-2-yl)pentanoic acid], the 50% inhibitory concentration (IC50) turned out to be 47.5 nM.
Next, `CCC(CC(=O)O)c1cc(Nc2ccc(Cl)cc2)cc(N(Cc2ccc(F)cc2)C(C)C)n1` (racemic) [Example 246, 3-(4-((4-chlorophenyl)amino)-6-((4-fluorobenzyl)(isopropyl)amino)pyridin-2-yl)pentanoic acid]: 4.7 nM.
For `CCC(CC(=O)O)c1cc(Nc2ccc3nc(C)sc3c2)cc(N(Cc2ccccc2)CC(C)C)n1` (single isomer, unassigned) [Example 243, 3-(6-(benzyl(isobutyl)amino)-4-((2-methylbenzo [d]thiazol-6-yl)amino)pyridin-2-yl)pentanoic acid] the value was 1610 nM.
For `CCC(CC(=O)O)c1cc(NC(=O)Nc2ccc(C)cc2)cc(N(Cc2ccccc2)CC(C)C)n1` (single isomer, unassigned) [Example 244, 3-(6-(benzyl(isobutyl)amino)-4-(3-(p-tolyl)ureido)pyridin-2-yl)pentanoic acid] the value was 109 nM; for `CCC(CC(=O)O)c1cc(Nc2ccc3nc(C)sc3c2)cc(N(Cc2ccc(F)cc2)C(C)C)n1` (single isomer, unassigned) [Example 247, 3-(6-((4-fluorobenzyl)(isopropyl)amino)-4-((2-methylbenzo [d]thiazol-6-yl)amino)pyridin-2-yl)pentanoic acid], 11.1 nM.
With `CCC(CC(=O)O)c1cc(Nc2ccc(Cl)cc2)cc(N(Cc2ccc(F)cc2)CC(C)C)n1` (single isomer, unassigned) [Example 248, 3-(4-((4-chlorophenyl)amino)-6-((4-fluorobenzyl)(isobutyl)amino)pyridin-2-yl)pentanoic acid], the IC50 came to 217 nM.
Next, `CCC(CC(=O)O)c1cc(Nc2ccc3nc(C)sc3c2)cc(N(Cc2ccc(F)cc2)CC(C)C)n1` (single isomer, unassigned) [Example 249, 3-(6-((4-fluorobenzyl)(isobutyl)amino)-4-((2-methylbenzo [d]thiazol-6-yl)amino)pyridin-2-yl)pentanoic acid]: 934 nM.
Next, `CCC(CC(=O)O)c1cc(NC(=O)Nc2ccc(C)cc2)cc(N(Cc2ccc(F)cc2)CC(C)C)n1` (single isomer, unassigned) [Example 250, 3-(6-((4-fluorobenzyl)(isobutyl)amino)-4-(3-(p-tolyl)ureido)pyridin-2-yl)pentanoic acid]: 156 nM; `CCN(Cc1ccccc1)c1cc(NC(=O)Cc2ccc(C)cc2)cc(-c2ccccc2-c2nnn[nH]2)n1` [Example 1, N-(2-(2-(1H-tetrazol-5-yl)phenyl)-6-(benzyl(ethyl)amino)pyridin-4-yl)-2-(p-tolyl)acetamide]: 45.4 nM.
Next, `Cc1ccc(NC(=O)Nc2cc(-c3ccccc3-c3nnn[nH]3)nc(N(CC(C)C)C3CCCCC3)n2)cc1` [Example 2, 1-(6-(2-(1H-tetrazol-5-yl)phenyl)-2-(cyclohexyl(isobutyl)amino)pyrimidin-4-yl)-3-(p-tolyl)urea]: 1040 nM; `Cc1ccc(CC(=O)Nc2cc(-c3ccccc3-c3nnn[nH]3)nc(N(CC(C)C)C3CCCCC3)n2)cc1` [Example 3, N-(6-(2-(1H-tetrazol-5-yl)phenyl)-2-(cyclohexyl(isobutyl)amino)pyrimidin-4-yl)-2-(p-tolyl)acetamide]: 26.3 nM.
As for `CCN(Cc1ccccc1)c1nc(NC(=O)Nc2ccc(C)cc2)cc(-c2ccccc2-c2nnn[nH]2)n1` [Example 4, 1-(6-(2-(1H-tetrazol-5-yl)phenyl)-2-(benzyl(ethyl)amino)pyrimidin-4-yl)-3-(p-tolyl)urea], the IC50 is 952 nM.
Take `CCN(Cc1ccccc1)c1nc(NC(=O)Cc2ccc(C)cc2)cc(-c2ccccc2-c2nnn[nH]2)n1` [Example 7, N-(6-(2-(1H-tetrazol-5-yl)phenyl)-2-(benzyl(ethyl)amino)pyrimidin-4-yl)-2-(p-tolyl)acetamide]: the IC50 came to 89 nM.
Turning to `Cc1ccc(CC(=O)Nc2cc(-c3ccccc3-c3nnn[nH]3)nc(N(Cc3ccccc3)CC(C)C)n2)cc1` [Example 8, N-(6-(2-(1H-tetrazol-5-yl)phenyl)-2-(benzyl(isobutyl)amino)pyrimidin-4-yl)-2-(p-tolyl)acetamide], the IC50 was found to be 8.5 nM.
Next, `Cc1ccc(C(=O)Nc2cc(-c3ccccc3-c3nnn[nH]3)nc(N(Cc3ccccc3)CC(C)C)n2)c(F)c1` [Example 9, N-(6-(2-(1H-tetrazol-5-yl)phenyl)-2-(benzyl(isobutyl)amino)pyrimidin-4-yl)-2-fluoro-4-methylbenzamide]: 74 nM; `Cc1ccc(NC(=O)Nc2cc(-c3ccccc3-c3nnn[nH]3)nc(N(Cc3ccccc3)CC(C)C)n2)cc1` [Example 10, 1-(6-(2-(1H-tetrazol-5-yl)phenyl)-2-(benzyl(isobutyl)amino)pyrimidin-4-yl)-3-(p-tolyl)urea]: 404 nM; `Cc1ccc(CC(=O)Nc2cc(-c3ccccc3-c3nnn[nH]3)nc(N(Cc3ccccc3)CC(C)C)n2)c(F)c1` [Example 11, N-(6-(2-(1H-tetrazol-5-yl)phenyl)-2-(benzyl(isobutyl)amino)pyrimidin-4-yl)-2-(2-fluoro-4-methylphenyl)acetamide]: 18.1 nM.
Next, `CCCN(Cc1ccccc1)c1cc(NC(=O)Nc2ccc(Cl)cc2F)cc(-c2ccccc2-c2noc(=O)[nH]2)n1` [Example 12, 1-(2-(benzyl(propyl)amino)-6-(2-(5-oxo-4,5-dihydro-1,2,4-oxadiazol-3-yl)phenyl)pyridin-4-yl)-3-(4-chloro-2-fluorophenyl)urea]: 7 nM.
Turning to `CCCN(Cc1ccc(F)cc1)c1cc(NC(=O)Nc2ccc(Cl)cc2F)cc(-c2ccccc2-c2noc(=O)[nH]2)n1` [Example 13, 1-(4-chloro-2-fluorophenyl)-3-(2-((4-fluorobenzyl)(propyl)amino)-6-(2-(5-oxo-4,5-dihydro-1,2,4-oxadiazol-3-yl)phenyl)pyridin-4-yl)urea], the IC50 came to 13.2 nM.
For `CCCN(Cc1ccccc1)c1cc(NC(=O)Nc2ccc(C)cc2)cc(-c2ccccc2-c2nsc(=O)[nH]2)n1` [Example 14, 1-(2-(benzyl(propyl)amino)-6-(2-(5-oxo-4,5-dihydro-1,2,4-thiadiazol-3-yl)phenyl)pyridin-4-yl)-3-(p-tolyl)urea] the value was 181 nM; for `CCCN(Cc1ccccc1)c1cc(NC(=O)Cc2ccc(C)cc2)cc(-c2ccccc2C(=O)O)n1` [Example 17, 2-(6-(benzyl(propyl)amino)-4-(2-(p-tolyl)acetamido)pyridin-2-yl)benzoic acid], 161 nM; for `CCCN(Cc1ccccc1)c1cc(NC(=O)Nc2ccc(C)cc2)cc(-c2ccccc2C(=O)NS(=O)(=O)N2CCN(C)CC2)n1` [Example 18, 2-(6-(benzyl(propyl)amino)-4-(3-(p-tolyl)ureido)pyridin-2-yl)-N-((4-methylpiperazin-1-yl)sulfonyl)benzamide], 2430 nM.
Next, `CCCN(Cc1ccccc1)c1cc(NC(=O)Cc2ccc(C)cc2)cc(-c2ccccc2C(=O)NS(=O)(=O)C2CC2)n1` [Example 19, 2-(6-(benzyl(propyl)amino)-4-(2-(p-tolyl)acetamido)pyridin-2-yl)-N-(cyclopropylsulfonyl)benzamide]: 485 nM; `CCCN(Cc1ccccc1)c1cc(NC(=O)Nc2ccc(C)cc2)cc(-c2ccccc2C(=O)NS(=O)(=O)C2CC2)n1` [Example 20, 2-(6-(benzyl(propyl)amino)-4-(3-(p-tolyl)ureido)pyridin-2-yl)-N-(cyclopropylsulfonyl)benzamide]: 594 nM.
For `CCCN(Cc1ccccc1)c1cc(NC(=O)Cc2ccc(C)cc2)cc(-c2ccccc2C(=O)NS(C)(=O)=O)n1` [Example 21, 2-(6-(benzyl(propyl)amino)-4-(2-(p-tolyl)acetamido)pyridin-2-yl)-N-(methylsulfonyl)benzamide] the value was 328 nM.
In the case of `Cc1ccc(CC(=O)Nc2cc(-c3ccccc3-c3nnn[nH]3)nc(N(Cc3ccccc3)CC3CC3)n2)cc1` [Example 22, N-(6-(2-(1H-tetrazol-5-yl)phenyl)-2-(benzyl(cyclopropylmethyl)amino)pyrimidin-4-yl)-2-(p-tolyl)acetamide], the IC50 was determined as 32.4 nM.
For `CCCN(Cc1ccccc1)c1nc(NC(=O)Cc2ccc(C)cc2)cc(-c2ccccc2-c2nnn[nH]2)n1` [Example 23, N-(6-(2-(1H-tetrazol-5-yl)phenyl)-2-(benzyl(propyl)amino)pyrimidin-4-yl)-2-(p-tolyl)acetamide] the value was 16.2 nM; for `CCCN(Cc1ccccc1)c1cc(NC(=O)Nc2ccc(C)cc2)cc(-c2ccccc2C(=O)NS(C)(=O)=O)n1` [Example 24, 2-(6-(benzyl(propyl)amino)-4-(3-(p-tolyl)ureido)pyridin-2-yl)-N-(methylsulfonyl)benzamide], 256 nM.
